Measurements as given in US20110105623A1 (Biogenic Innovations, LLC, priority 2009, published 2011).

Experiments:
Chlorella sorokiniana = experiment: Algal growth by percent transmittance at 750 nm; assay type: cell-based; conditions: MSM […]
Method: (§1) Two species of Chlorella were examined for growth—Chlorella sorokiniana a freshwater species and Chlorella minutissima a marine species. […] Growth was measured on day 0, 1, 2, 3, 4, 5, 6, 7, 8, 9 and 10. […] The following media were purchased from UTEX Culture Collection of Algae: Enriched Salt Water Medium and Volvox Dextrose Medium.
(§2) The algae were grown for 48 hours in the appropriate medium. The initial suspension was enumerated for each alga and is referred to as the starting inoculums. Chlorella sorokiniana was at 381 million cells per milliliter and Chlorella minutissima was at 19 million cells per milliliter. One milliliter of the algal solution was placed into 9 mLs of medium and mixed by vortexing. […] The tube of algae and MSM were incubated at room temperature with exposure to sunlight. […] Each dilution of MSM for each organism was set up in and analyzed in triplicate for each time interval measured. The samples were measured by percent transmittance on a UV/VIS spectrophotometer at wavelength 750 nm. The medium stock was tested for percent transmittance background levels at every time interval were measured. The lower percent transmittance indicated a higher growth factor.

Chlorella minutissima = experiment: Algal growth by percent transmittance at 750 nm; assay type: cell-based
Method: as §1, §2

[1] = test system: Streptococcus Pyogenes (Lancefield group A, #10096); experiment: Bacterial viability by bioluminescent ATP assay

Methylsulfonylmethane [MSM]
Growth, percent transmittance at 750 nm (Chlorella sorokiniana; Sample Day 4): 26.1%
Growth, percent transmittance at 750 nm (Chlorella sorokiniana; Sample Day 5): 10.3%
Growth, percent transmittance at 750 nm (Chlorella sorokiniana; Sample Day 6): 10.9%
Growth, percent transmittance at 750 nm (Chlorella sorokiniana; Sample Day 7): 11.0%
Growth, percent transmittance at 750 nm (Chlorella sorokiniana; Sample Day 8): 11.2%
Growth, percent transmittance at 750 nm (Chlorella sorokiniana; Sample Day 9): 8.4%
Growth, percent transmittance at 750 nm (Chlorella sorokiniana; Sample Day 10): 6.0%
Growth, percent transmittance at 750 nm (Chlorella minutissima; MSM 0.5%, Sample Day 0): 93.5%
Growth, percent transmittance at 750 nm (Chlorella minutissima; MSM 0.5%, Sample Day 1): 70.1%
Growth, percent transmittance at 750 nm (Chlorella minutissima; MSM 0.5%, Sample Day 2): 45.4%
Growth, percent transmittance at 750 nm (Chlorella minutissima; MSM 0.5%, Sample Day 3): 32.1%
Growth, percent transmittance at 750 nm (Chlorella minutissima; MSM 0.5%, Sample Day 4): 27.6%
Growth, percent transmittance at 750 nm (Chlorella minutissima; MSM 0.5%, Sample Day 5): 26.6%
Growth, percent transmittance at 750 nm (Chlorella minutissima; MSM 0.5%, Sample Day 6): 25.1%
Growth, percent transmittance at 750 nm (Chlorella minutissima; MSM 0.5%, Sample Day 7): 23.6%
Growth, percent transmittance at 750 nm (Chlorella minutissima; MSM 0.5%, Sample Day 8): 22.8%
Growth, percent transmittance at 750 nm (Chlorella minutissima; MSM 0.5%, Sample Day 9): 20.4%
Growth, percent transmittance at 750 nm (Chlorella minutissima; MSM 0.5%, Sample Day 10): 18.9%
Growth, percent transmittance at 750 nm (Chlorella minutissima; MSM 1.0%, Sample Day 0): 91.1%
Growth, percent transmittance at 750 nm (Chlorella minutissima; MSM 1.0%, Sample Day 1): 80.5%
Growth, percent transmittance at 750 nm (Chlorella minutissima; MSM 1.0%, Sample Day 2): 40.0%
Growth, percent transmittance at 750 nm (Chlorella minutissima; MSM 1.0%, Sample Day 3): 31.0%
Growth, percent transmittance at 750 nm (Chlorella minutissima; MSM 1.0%, Sample Day 4): 27.9%
Growth, percent transmittance at 750 nm (Chlorella minutissima; MSM 1.0%, Sample Day 5): 26.5%
Growth, percent transmittance at 750 nm (Chlorella minutissima; MSM 1.0%, Sample Day 6): 25.4%
Growth, percent transmittance at 750 nm (Chlorella minutissima; MSM 1.0%, Sample Day 7): 24.4%
Growth, percent transmittance at 750 nm (Chlorella minutissima; MSM 1.0%, Sample Day 8): 23.7%
Growth, percent transmittance at 750 nm (Chlorella minutissima; MSM 1.0%, Sample Day 9): 21.0%
Growth, percent transmittance at 750 nm (Chlorella minutissima; MSM 1.0%, Sample Day 10): 19.4%
Growth, percent transmittance at 750 nm (Chlorella minutissima; MSM 5.0%, Sample Day 0): 68.9%
Growth, percent transmittance at 750 nm (Chlorella minutissima; MSM 5.0%, Sample Day 1): 87.4%
Growth, percent transmittance at 750 nm (Chlorella minutissima; MSM 5.0%, Sample Day 2): 76.5%
Growth, percent transmittance at 750 nm (Chlorella minutissima; MSM 5.0%, Sample Day 3): 62.0%
Growth, percent transmittance at 750 nm (Chlorella minutissima; MSM 5.0%, Sample Day 4): 52.9%
Growth, percent transmittance at 750 nm (Chlorella minutissima; MSM 5.0%, Sample Day 5): 52.2%
Growth, percent transmittance at 750 nm (Chlorella minutissima; MSM 5.0%, Sample Day 6): 50.7%
Growth, percent transmittance at 750 nm (Chlorella minutissima; MSM 5.0%, Sample Day 7): 51.0%
Growth, percent transmittance at 750 nm (Chlorella minutissima; MSM 5.0%, Sample Day 8): 51.9%
Growth, percent transmittance at 750 nm (Chlorella minutissima; MSM 5.0%, Sample Day 9): 47.1%
Growth, percent transmittance at 750 nm (Chlorella minutissima; MSM 5.0%, Sample Day 10): 44.1%
Growth, percent transmittance at 750 nm (Chlorella minutissima; MSM 10.0%, Sample Day 0): 49.6%
Growth, percent transmittance at 750 nm (Chlorella minutissima; MSM 10.0%, Sample Day 1): 49.2%
Growth, percent transmittance at 750 nm (Chlorella minutissima; MSM 10.0%, Sample Day 2): 50.8%
Growth, percent transmittance at 750 nm (Chlorella minutissima; MSM 10.0%, Sample Day 3): 51.9%
Growth, percent transmittance at 750 nm (Chlorella minutissima; MSM 10.0%, Sample Day 4): 52.0%
Growth, percent transmittance at 750 nm (Chlorella minutissima; MSM 10.0%, Sample Day 5): 51.9%
Growth, percent transmittance at 750 nm (Chlorella minutissima; MSM 10.0%, Sample Day 6): 54.9%
Growth, percent transmittance at 750 nm (Chlorella minutissima; MSM 10.0%, Sample Day 7): 56.1%
Growth, percent transmittance at 750 nm (Chlorella minutissima; MSM 10.0%, Sample Day 8): 58.6%
Growth, percent transmittance at 750 nm (Chlorella minutissima; MSM 10.0%, Sample Day 9): 41.4%
Growth, percent transmittance at 750 nm (Chlorella minutissima; MSM 10.0%, Sample Day 10): 36.7%
Growth, percent transmittance at 750 nm (Chlorella minutissima; MSM 20.0%, Sample Day 0): 30.0%
Growth, percent transmittance at 750 nm (Chlorella minutissima; MSM 20.0%, Sample Day 1): 33.8%
Growth, percent transmittance at 750 nm (Chlorella minutissima; MSM 20.0%, Sample Day 2): 51.1%
Growth, percent transmittance at 750 nm (Chlorella minutissima; MSM 20.0%, Sample Day 3): 54.8%
Growth, percent transmittance at 750 nm (Chlorella minutissima; MSM 20.0%, Sample Day 4): 57.3%
Growth, percent transmittance at 750 nm (Chlorella minutissima; MSM 20.0%, Sample Day 5): 57.5%
Growth, percent transmittance at 750 nm (Chlorella minutissima; MSM 20.0%, Sample Day 6): 57.4%
Growth, percent transmittance at 750 nm (Chlorella minutissima; MSM 20.0%, Sample Day 7): 57.1%
Growth, percent transmittance at 750 nm (Chlorella minutissima; MSM 20.0%, Sample Day 8): 55.8%
Growth, percent transmittance at 750 nm (Chlorella minutissima; MSM 20.0%, Sample Day 9): 45.1%
Growth, percent transmittance at 750 nm (Chlorella minutissima; MSM 20.0%, Sample Day 10): 30.2%
Growth, percent transmittance at 750 nm (Chlorella minutissima; MSM […], Sample Day 0): 82.8%
Growth, percent transmittance at 750 nm (Chlorella minutissima; MSM […], Sample Day 1): 75.1%
Growth, percent transmittance at 750 nm (Chlorella minutissima; MSM […], Sample Day 2): 59.5%
Growth, percent transmittance at 750 nm (Chlorella minutissima; MSM […], Sample Day 3): 45.4%
Growth, percent transmittance at 750 nm (Chlorella minutissima; MSM […], Sample Day 4): 33.6%
Growth, percent transmittance at 750 nm (Chlorella minutissima; MSM […], Sample Day 5): 32.4%
Growth, percent transmittance at 750 nm (Chlorella minutissima; MSM […], Sample Day 6): 30.0%
Growth, percent transmittance at 750 nm (Chlorella minutissima; MSM […], Sample Day 7): 28.6%
Growth, percent transmittance at 750 nm (Chlorella minutissima; MSM […], Sample Day 8): 27.7%
Growth, percent transmittance at 750 nm (Chlorella minutissima; MSM […], Sample Day 9): 23.3%
Growth, percent transmittance at 750 nm (Chlorella minutissima; MSM […], Sample Day 10): 21.1%
IC50 [1]: 10.26%
